Assay results: patent US5760036A, “Aminediol protease inhibitors” (E. R. Squibb & Sons, Inc., priority 1995, dated 1998)

Target: T1, HIV protease (Human immunodeficiency virus type 1 group M subtype B, UniProt P04585)
T1 construct: and purified protease
Test: HIV Protease Assay
Type: biochemical
Conditions: 10 μM inhibitor, 4% DMSO, 450 μM substrate, pH 5.5, 30 minutes at 37° C., RP-HPLC
Procedure: An HIV protease standard assay was performed in a 60 μl reaction medium containing 50 mM sodium acetate, pH 5.5, 100 μg/ml bovine serum albumen,450 μM substrate (H2 N-Val-Ser-Gln-Asn-(β-naphthyl-alanine)-Pro-Val-Ile-OH), and purified protease. The reaction medium was incubated for 30 minutes at 37° C., quenched by the addition of 140 μl 5% H3 PO4, then analyzed by reverse phase HPLC using UV220 detection. In a typical control assay, 7% of the substrate was hydrolyzed. Aminediol inhibitors of the present invention, listed in the following Table 1, were then employed in the assay, for which purpose they were prepared as a […] solution in DMSO, then diluted to 30 μM with 50 mM sodium acetate/bovine serum albumen. This working stock was then diluted three-fold into the protease reaction medium, for a final concentration of 10 μM inhibitor and 4% DMSO.

In order of rising “HIV Protease % Inhibition at 10 μM” value:
1. CC(C)(C)OC(=O)N[C@@H](Cc1ccccc1)[C@H](O)CNC[C@@H](O)[C@H](Cc1ccccc1)NC(=O)C1NC(=O)OC1(C)C (single isomer, unassigned; isomer a) [Compound 239, [1S-[1R*,2S*(2S*,3R*)]]-[3-[[3-[[(5,5-Dimethyl-2-oxo-4-oxazolidinyl)carbonyl]amino]-2-hydroxy-4-phenylbutyl]amino]-2-hydroxy-1-(phenylmethyl)propyl]carbamic acid, 1,1-dimethylethyl ester, isomer A]  37%
2. CC(C)(C)OC(=O)N[C@@H](Cc1ccccc1)[C@H](O)CNC[C@@H](O)[C@H](Cc1ccccc1)NC(=O)C(C)(O)c1ccccn1 (single isomer, unassigned; isomer a) [Compound 381, [1S-[1R*,2S*(2S*, 3R*)]]-[2-Hydroxy-3-[[2-hydroxy-3-[[2-hydroxy-1-oxo-2-(2-pyridinyl)propyl]amino]-4-phenylbutyl]amino]-1-(phenylmethyl)propyl]carbamic acid, 1.1-dimethylethyl ester, isomer A]  60%
3. CC(C)(C)OC(=O)N[C@@H](Cc1ccccc1)[C@H](O)CNC[C@@H](O)[C@H](Cc1ccccc1)NC(=O)C(CCO)C(C)(C)C (single isomer, unassigned; isomer b) [Compound 313, [1S-[1R*, 2S* (2S*, 3R*)][-[3-[[3-[[2-(1,1-Dimethylethyl)-4-hydroxy-1-oxobutyl]amino]-2-hydroxy-4-phenylbutyl]amino]-2-hydroxy-1-(phenylmethyl)propyl]carbamic acid, 1,1-dimethylethyl ester, isomer B]  65%
4. CC(C)(C)OC(=O)N[C@@H](Cc1ccccc1)[C@H](O)CNC[C@@H](O)[C@H](Cc1ccccc1)NC(=O)C1NC(=O)CC1(C)C (single isomer, unassigned) [Compound 266, [1S-[1R*,2S*(2S*,3R*)]]-[3-[[3-[[(3,3-Dimethyl-5-oxo-2-pyrrolidinyl)carbonyl]amino]-2-hydroxy-4-phenylbutyl]amino]-2-hydroxy-1-(phenylmethyl)propyl]carbamic acid, 1,1-dimethylethyl ester]  69%
5. CC(C)(C)OC(=O)N[C@@H](Cc1ccccc1)[C@H](O)CNC[C@@H](O)[C@H](Cc1ccccc1)NC(=O)C1(O)COCC1(C)C (single isomer, unassigned; isomer b) [Compound 365, [1S-[1R*,2S*(2S*,3R*)]]-[2-Hydroxy-3-[[tetrahydro-3-hydroxy-4,4-dimethyl-3-furanyl)carbonyl]amino]-4-phenylbutyl]amino]-l-(phenylmethyl)-propyl]carbamic acid, 1,1-dimethylethyl ester, Isomer B]  72%
6. COC(=O)NC(C)(C(=O)N[C@@H](Cc1ccccc1)[C@H](O)CNC[C@@H](O)[C@H](Cc1ccccc1)NC(=O)OC(C)(C)C)C(C)(C)C (single isomer, unassigned; isomer a) [Compound 373]  85%
7. CC(C)(C)OC(=O)N[C@@H](Cc1ccccc1)[C@H](O)CNC[C@@H](O)[C@H](Cc1ccccc1)NC(=O)C(O)C(F)(F)F (single isomer, unassigned; isomer b) [Compound 272, [1S-[1R*,2S*(2S*,3R*)]]-[2-Hydroxy-1-(phenylmethyl)-3-[[2-hydroxy-4-phenyl-3-[(3.3,3-trifluoro-2-hydroxy-1-oxopropyl)amino]butyl]amino]propyl]carbamic acid,1,1-dimethylethyl ester (isomer B)]  87%
8. CC(C)(C)OC(=O)N[C@@H](Cc1ccccc1)[C@H](O)CNC[C@@H](O)[C@H](Cc1ccccc1)NC(=O)C(C)(O)C(F)(F)F (single isomer, unassigned; isomer b) [Compound 294, [1S-[1R*,2S*(2S*,3R*)]]-[2-Hydroxy-3-[2-hydroxy-1-oxo-2-(trifluoromethyl)propyl]amino]-4-phenylbutyl]amino]-1-(phenylmethyl)propyl]carbamic acid, 1,1-dimethylethylester (isomer B)]  89%
9. CC(C)(C)OC(=O)N[C@@H](Cc1ccccc1)[C@H](O)CNC[C@@H](O)[C@H](Cc1ccccc1)NC(=O)C1(O)CCc2ccccc21 (single isomer, unassigned; isomer a) [Compound 375, [1S-[1R*,2S*(2S*, 3R*)]]-[3-[[3-]](2,3-Dihydro-1-hydroxy-1H-inden-1-yl)carbonyl]amino]-2-hydroxy-4-phenylbutyl]amino]-2-hydroxy-1-(phenylmethyl)-propyl]carbamic acid, 1,1-dimethylethyl ester, isomer A]  98%
10. CC(C)(C)OC(=O)N[C@@H](Cc1ccccc1)[C@H](O)CNC[C@@H](O)[C@H](Cc1ccccc1)NC(=O)C1(O)CCCCC1(C)C (single isomer, unassigned; isomer b) [Compound 362, [1S-[1R*,2S*(2S*,3R*)]]-[3-[[3-[[2,2-Dimethyl-1-hydroxycyclohexyl)carbonyl]amino]-2-hydroxy-4-phenylbutyl]amino]-2-hydroxy-1-(phenylmethyl) propyl]carbamic acid, 1,1-dimethylethyl ester, isomer B]  98%

Same assay, conditions: pH 5.5, 10 μM inhibitor, 4% DMSO, 450 μM substrate, pH 5.5, 30 minutes at 37° C., RP-HPLC; read-out: HIV Protease % Inhibition at 10 μM

In order of rising inhibition at 10 µM:
1. CC(C)(C)OC(=O)N1CCC[C@H]1C(O)CNCC(O)[C@@H]1CCCN1C(=O)OC(C)(C)C (single isomer, unassigned) [Compound 7]  8%
2. CC(C)(C)OC(=O)NCC(O)[C@H](Cc1ccccc1)NC[C@@H](O)[C@H](Cc1ccccc1)NC(=O)OC(C)(C)C (mixture of isomers) [Compound 188, [3S-[3R*(2S*,3R*)]]-[3-[[3-[[(1,1-Dimethylethoxy)carbonyl]amino]-2-hydroxy-4-phenyl-butyl]amino]-2-hydroxy-4-phenylbutyl]carbamic acid, 1,1-dimethylethyl ester, 2:1 diastereomer mixture]  21%
3. CC(C)(C)OC(=O)N[C@@H](Cc1ccccc1)[C@H](O)CNC[C@@H](O)[C@H](Cc1ccccc1)NC(=O)NCc1ccccc1 (relative stereo) [Compound 57, [1R*,2S*(2S*,3R*)]-[2-Hydroxy-3[[2-hydroxy-4-phenyl-3-[[[(phenylmethyl)amino]-carbonyl]amino]butyl]amino]-1-(phenylmethyl)-propyl]carbamic acid, 1,1-dimethylethyl ester]  46%
4. COC(=O)N[C@@H](C(=O)N[C@@H](Cc1ccccc1)[C@H](O)CNC[C@@H](O)[C@H](Cc1ccccc1)NC(=O)OC(C)(C)C)C(C)(C)C (relative stereo) [Compound 340, [1S*,2R*(2R*,3S*)]-N-[3-[[3-[[(1,1-Dimethylethoxy)carbonyl]amino]-2-hydroxy-4-phenylbutyl]amino]-2-hydroxy-1-(phenylmethyl)propyl]-N^2-(2-methoxycarbonyl)-3-methyl-D-valinamide]  56%
5. CC(C)(C)OC(=O)N[C@@H](Cc1ccccc1)[C@H](O)CNC[C@@H](O)[C@H](Cc1ccccc1)NC(=O)C1(O)CCCCC1(C)C (single isomer, unassigned; isomer a) [Compound 361, [1S-[1R*,2S*(2S*,3R*)]]-[3-[[3-[[2 , 2-Dimethyl-1-hydroxycyclohexyl)carbonyl]amino]-2-hydroxy-4-phenylbutyl]amino]-2-hydroxy-1-(phenylmethyl) propyl]carbamic acid, 1,1-dimethylethyl ester, isomer A]  97%
6. CC(C)[C@@H](NC(=O)NCc1nc2ccccc2[nH]1)C(=O)N[C@@H](Cc1ccccc1)[C@H](O)CNC[C@@H](O)[C@H](Cc1ccccc1)NC(=O)OC(C)(C)C (relative stereo) [Compound 274, [1S*,2R*(2R*,3S*)]-N^2-[[(1H-Benzimidazol-2-ylmethyl)amino]carbonyl]-N-[3-[[3-[[(1,1-dimethylethoxy)carbonyl]amino]-2-hydroxy-4-phenylbutyl]amino]-2-hydroxy-1-(phenylmethyl)propyl]-D-valinamide]  99%
7. COC(=O)N[C@H](C(=O)N[C@@H](Cc1ccccc1)[C@H](O)CNC[C@@H](O)[C@H](Cc1ccccc1)NC(=O)[C@](C)(O)C(C)(C)C)C(C)(C)C (relative stereo) [Compound 383, [1R*,2S*[2S*, 3R*(S*)]]-N-[2-Hydroxy-3-[[2-hydroxy-3-[(2-hydroxy-2,3,3-trimethyl-1-oxobutyl)amino]-4-phenylbutyl]amino]-1-(phenylmethyl)propyl]-N^2-(2-methoxycarbonyl)-3-methyl-L-valinamide]  99%
8. CNC(=O)C(O)(C(=O)N[C@@H](Cc1ccccc1)[C@H](O)CNC[C@@H](O)[C@H](Cc1ccccc1)NC(=O)OC(C)(C)C)C(C)(C)C (single isomer, unassigned; isomer a) [Compound 384, [1S-[1R*,2S*(2S*, 3R*)]]-[3-[[3-[[2-Hydroxy-3,3-dimethyl-2-[(methylamino)carbonyl]-1-oxobutyl]amino]-2-hydroxy-4-phenylbutyl]amino]-2-hydroxy-1-(phenylmethyl)propyl]carbamic acid, 1,1-dimethylethyl ester, isomer A]  99%
